Laboratory results: US11787780B2 (CORCEPT THERAPEUTICS INCORPORATED, priority 2020, dated 2023)

These compounds were tested against glucocorticoid receptor (GR) recombinant ligand binding domain (LBD) (Homo sapiens (Human), UniProt P04150) (assay: GR binding fluorescence polarisation (FP) assay). Details: displacement of fluorescently tagged ligand.
Experimental: Binding of test compounds to the glucocorticoid receptor (GR) is determined using a fluorescence polarisation (FP) assay utilising a recombinant ligand binding domain (LBD) of GR. The test compounds are assessed by their ability to displace a fluorescently tagged ligand and detection of the resulting decrease in fluorescence polarisation.

glucocorticoid receptor (GR) recombinant ligand binding domain (LBD), sequence (P04150 524-758): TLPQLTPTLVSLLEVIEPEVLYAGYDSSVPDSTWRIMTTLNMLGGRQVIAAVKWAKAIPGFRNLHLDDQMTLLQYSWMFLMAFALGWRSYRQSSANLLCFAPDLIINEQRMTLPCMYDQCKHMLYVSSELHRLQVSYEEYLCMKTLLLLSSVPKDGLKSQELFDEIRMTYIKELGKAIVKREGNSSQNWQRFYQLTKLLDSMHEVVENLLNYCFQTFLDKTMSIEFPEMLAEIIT

Row | SMILES | IC50 [nM]
1 | CCCn1cc(S(=O)(=O)N2CCC(C(=O)N3CCCC3)(c3cc4cnn(-c5ccc(F)cc5)c4cc3C)CC2)cn1 [Example 22, (4-(1-(4-fluorophenyl)-6-methyl-1H-indazol-5-yl)-1-((1-propyl-1H-pyrazol-4-yl)sulfonyl)piperidin-4-yl)(pyrrolidin-1-yl)methanone] | 857
2 | Cn1cc(S(=O)(=O)C2CCN(c3ccc4c(cnn4-c4ccc(F)cc4)c3)CC2)cn1 [Example 33, 1-(4-fluorophenyl)-5-(4-((1-methyl-1H-pyrazol-4-yl)sulfonyl)piperidin-1-yl)-1H-indazole] | 67
3 | Cn1cc(S(=O)(=O)N2CCN(c3ccc4c(cnn4-c4ccc(F)cc4)c3)[C@H](Cc3ccccc3)C2)cn1 [Example 34] | 1100
4 | C[C@@H]1CN(S(=O)(=O)C2CCCC2)CCN1c1ccc2c(cnn2-c2ccc(F)cc2)c1 [Example 35] | 1810
5 | C[C@H]1CN(S(=O)(=O)c2cnn(C)c2)CCN1c1ccc2c(cnn2-c2ccc(F)cc2)c1 [Example 36] | 3550
6 | C[C@@H]1CN(c2ccc3c(cnn3-c3ccc(F)cc3)c2)CCN1S(=O)(=O)c1cnn(C)c1 [Example 37] | 396
7 | C[C@H]1CN(c2ccc3c(cnn3-c3ccc(F)cc3)c2)CCN1S(=O)(=O)c1cnn(C)c1 [Example 38] | 1950
8 | C[C@@H]1CN(c2ccc3c(cnn3-c3ccc(F)cc3)c2)CCN1S(=O)(=O)c1ccc(F)c(F)c1 [Example 40] | 546
9 | Cn1cc(S(=O)(=O)N2CCN(c3ccc4c(cnn4-c4ccc(F)cc4)c3)C[C@H]2Cc2ccccc2)cn1 [Example 41] | 937
10 | CC(C)C[C@@H]1CN(c2ccc3c(cnn3-c3ccc(F)cc3)c2)CCN1S(=O)(=O)c1cnn(C)c1 [Example 42] | 2320
11 | CC1(C)CN(c2ccc3c(cnn3-c3ccc(F)cc3)c2)CCN1S(C)(=O)=O [Example 45] | 562
12 | CCCn1cc(S(=O)(=O)N2CCN(c3ccc4c(cnn4-c4ccc(F)cc4)c3)CC2(C)C)cn1 [Example 46] | 1130
13 | CS(=O)(=O)N1C[C@@H]2C[C@H]1CN2c1ccc2c(cnn2-c2ccc(F)cc2)c1 [Example 47] | 1410
14 | CS(=O)(=O)N1CC2CC(C1)N2c1ccc2c(cnn2-c2ccc(F)cc2)c1 [Example 48] | 4050
15 | CCCn1cc(S(=O)(=O)N2CCN(c3ccc4c(cnn4-c4ccc(F)cc4)c3C)C[C@H]2C)cn1 [Example 49] | 8220
16 | C[C@@H]1CN(S(C)(=O)=O)[C@@H](C)CN1c1ccc2c(cnn2-c2ccc(F)cc2)c1 [Example 51] | 360
17 | COC(=O)C1CN(c2ccc3c(cnn3-c3ccc(F)cc3)c2)CCN1S(=O)(=O)c1cnn(CC2CC2)c1 (stereo not shown) [Example 52] | 700
18 | C[C@@H]1CN(c2ccc3c(cnn3-c3ccc(F)cc3)c2)CCN1S(=O)(=O)c1cnn(C2CCOCC2)c1 [Example 53] | 244
19 | Cc1nn(C2CCCC2)cc1S(=O)(=O)N1CCN(c2ccc3c(cnn3-c3ccc(F)cc3)c2)C[C@H]1C [Example 54] | 142
20 | CCCn1cc(S(=O)(=O)N2C[C@H](C)N(c3ccc4c(cnn4-c4ccc(F)cc4)c3)C[C@H]2C)cn1 [Example 55] | 21
21 | CCCn1cc(S(=O)(=O)N2CCN(c3ccc4c(cnn4-c4ccc(F)cc4)c3)C[C@H]2C)c(C)n1 [Example 57] | 249
22 | C[C@@H]1CN(S(C)(=O)=O)[C@H](C)CN1c1ccc2c(cnn2-c2ccc(F)cc2)c1 [Example 62] | 431
23 | CCCNS(=O)(=O)N1CCN(c2ccc3c(cnn3-c3ccc(F)cc3)c2)C[C@H]1C [Example 63] | 215

Row | SMILES | IC50 [nM]
24 | CC(C)Cn1cc(S(=O)(=O)N2CCN(c3ccc4c(cnn4-c4ccc(F)cc4)c3)C[C@H]2C)cn1 [Example 64] | 151
25 | CCCn1cc(S(=O)(=O)N2CCN(c3ccc4c(cnn4-c4ccc(F)cc4)c3)CC23CCC3)cn1 [Example 66] | 429
26 | CCCn1cc(S(=O)(=O)N2CCN(c3cc4cnn(-c5ccc(F)cc5)c4cn3)CC23CC3)cn1 [Example 69] | 1160
27 | CCCn1cc(S(=O)(=O)N2CCN(c3cnc4c(cnn4-c4ccc(F)cc4)c3)CC23CC3)cn1 [Example 71] | 238
28 | CCCn1cc(S(=O)(=O)N2CCN(c3ccc4c(cnn4-c4ccc(F)cc4)n3)CC23CC3)cn1 [Example 72] | 3740
29 | CCCn1cc(S(=O)(=O)N2CCN(c3cc4nnn(-c5ccc(F)cc5)c4cc3C)CC23CC3)cn1 [Example 74] | 66
30 | CCCn1cc(S(=O)(=O)N2CCN(c3cc4cnn(-c5ccc(OC)cc5)c4cc3C)C[C@H]2C)cn1 [Example 75] | 325
31 | CCCn1cc(S(=O)(=O)N2CCN(c3cc4cnn(-c5ccc(F)c(F)c5)c4cc3C)C[C@H]2C)cn1 [Example 76] | 83
32 | CCCn1cc(S(=O)(=O)N2CCN(c3cc4cnn(-c5ccc(OC)nc5)c4cc3C)C[C@H]2C)cn1 [Example 77] | 1040
33 | CCCn1cc(S(=O)(=O)N2C3CCC2CN(c2cc4cnn(-c5ccc(F)cc5)c4cc2C)C3)cn1 [Example 83] | 515
34 | Cc1cc2c(cnn2-c2ccc(F)cc2)cc1N1CCC2(CCCN2S(C)(=O)=O)CC1 [Example 88] | 7230
35 | CCCn1cc(S(=O)(=O)N2CCCC23CCN(c2cc4cnn(-c5ccc(F)cc5)c4cc2C)CC3)cn1 [Example 89] | 434
36 | Cc1cc2c(cnn2-c2ccc(F)cc2)cc1N1CCC2(CCN(S(C)(=O)=O)CC2)C1 [Example 95] | 612
37 | Cc1cc2c(cnn2-c2ccc(F)cc2)cc1N1CCC2(CCN(S(=O)(=O)c3cnn(C)c3)CC2)C1 [Example 96] | 2560
38 | CC(=O)N1CCN(c2ccc3c(cnn3-c3ccc(F)cc3)c2)[C@H](C)C1 [Example 97] | 1810
39 | CC(=O)N1CCN(c2ccc3c(cnn3-c3ccc(F)cc3)c2)C[C@H]1Cc1ccccc1 [Example 98] | 749
40 | CC(=O)N1CCN(c2ccc3c(cnn3-c3ccc(F)cc3)c2)C[C@H]1CC(C)C [Example 99] | 898
41 | Cc1cc2c(cnn2-c2ccc(F)cc2)cc1N1CCN(C(=O)Nc2ccccc2)C2(CC2)C1 [Example 102] | 267
42 | CCCS(=O)(=O)N1CCN(c2ccc3c(cnn3-c3ccc(F)cc3)c2)C[C@H]1C [Example 104, (R)-1-(4-fluorophenyl)-5-(3-methyl-4-(propylsulfonyl)piperazin-1-yl)-1H-indazole] | 270
43 | CS(=O)(=O)N[C@H]1CCN(c2ccc3c(cnn3-c3ccc(F)cc3)c2)C1 [Example 105] | 320
44 | Cc1cc2c(cnn2-c2ccc(F)cc2)cc1N1CCC(NS(C)(=O)=O)CC1 [Example 106] | 9
45 | CCCn1cc(S(=O)(=O)NC2CCN(c3cc4cnn(-c5ccc(F)cc5)c4cc3C)CC2)cn1 [Example 107] | 3
46 | Cc1cc2c(cnn2-c2ccc(F)cc2)cc1N1CC[C@H](NS(C)(=O)=O)C1 [Example 108] | 7

Row | SMILES | IC50 [nM]
47 | Cc1cc2c(cnn2-c2ccc(F)cc2)cc1N1CC[C@@H](NS(C)(=O)=O)C1 [Example 109] | 48
48 | Cc1cc2c(cnn2-c2ccc(F)cc2)cc1N1CC[C@@H](NS(=O)(=O)c2cnn(C)c2)C1 [Example 110] | 46
49 | Cc1cc2c(cnn2-c2ccc(F)cc2)cc1N1CC[C@H](NS(=O)(=O)c2cnn(C)c2)C1 [Example 111] | 3
50 | Cc1cc2c(cnn2-c2ccc(F)cc2)cc1N1CC[C@H](N(C)S(C)(=O)=O)C1 [Example 112] | 249
51 | Cc1cc2c(cnn2-c2ccc(F)cc2)cc1N1CC[C@@H](N(C)S(C)(=O)=O)C1 [Example 113] | 52
52 | Cc1cc2c(cnn2-c2ccc(F)cc2)cc1N1CC[C@H](N(C)S(=O)(=O)c2cnn(C)c2)C1 [Example 114] | 304
53 | Cc1cc2c(cnn2-c2ccc(F)cc2)cc1N1CC[C@@H](N(C)S(=O)(=O)c2cnn(C)c2)C1 [Example 115] | 21
54 | Cc1cc2c(cnn2-c2ccc(F)cc2)cc1N1CCC(N(C)S(C)(=O)=O)CC1 [Example 116] | 72
55 | CCCn1cc(S(=O)(=O)N(C)C2CCN(c3cc4cnn(-c5ccc(F)cc5)c4cc3C)CC2)cn1 [Example 117] | 57
56 | CCCn1cc(S(=O)(=O)N(C)[C@H]2CCCN(c3cc4cnn(-c5ccc(F)cc5)c4cc3C)C2)cn1 [Example 125] | 208
57 | Cc1cc2c(cnn2-c2ccc(F)cc2)cc1N1CCCC(N(C)S(C)(=O)=O)C1 (stereo not shown) [Example 126] | 190
58 | Cc1cc2c(cnn2-c2ccc(F)cc2)cc1N1CCCC(N(C)S(=O)(=O)c2cnn(C)c2)C1 (stereo not shown) [Example 127] | 174
59 | CCCn1cc(S(=O)(=O)N(C)C2CCCN(c3cc4cnn(-c5ccc(F)cc5)c4cc3C)C2)cn1 (stereo not shown) [Example 128] | 590
60 | CS(=O)(=O)N1CCC(c2ccc3c(cnn3-c3ccc(F)cc3)c2)CC1 [Example 134] | 3380
61 | CCCn1cc(S(=O)(=O)N2CCC(c3ccc4c(cnn4-c4ccc(F)cc4)c3)CC2)cn1 [Example 135] | 473
62 | Cc1cc2c(cnn2-c2ccc(F)cc2)cc1C1CCN(S(C)(=O)=O)CC1 [Example 136] | 102
63 | CCCn1cc(S(=O)(=O)N2CC=C(c3ccc4c(cnn4-c4ccc(F)cc4)c3)CC2)cn1 [Example 137] | 308
64 | Cc1cc2c(cnn2-c2ccc(F)cc2)cc1C1=CCN(S(C)(=O)=O)CC1 [Example 138] | 101
65 | CCCn1cc(S(=O)(=O)N2CC=C(c3cc4cnn(-c5ccc(F)cc5)c4cc3C)CC2)cn1 [Example 139] | 218
66 | CCCn1cc(S(=O)(=O)N2CCN(c3cc4cnn(-c5ccc(F)cc5)c4cc3C)C(=O)C2)cn1 [Example 209, 1-(1-(4-fluorophenyl)-6-methyl-1H-indazol-5-yl)-4-((1-propyl-1H-pyrazol-4-yl)sulfonyl)piperazin-2-one] | 3900
67 | Cc1cc2c(cnn2-c2ccc(F)cc2)cc1C1(COCc2ccccc2)CCN(S(=O)(=O)c2cnn(C)c2)C1 (stereo not shown) [Example 341, 5-(3-((benzyloxy)methyl)-1-((1-methyl-1H-pyrazol-4-yl)sulfonyl)pyrrolidin-3-yl)-1-(4-fluorophenyl)-6-methyl-1H-indazole] | 390
